Measured values: patent publication US10150795B2, “Peptide having antimicrobial activity against pathogens and antimicrobial peptide composition comprising the same” (Hankuk University of Foreign Studies Research & Business …, priority 2016, dated 2018)
Ends that are not written are not given here.

Assays:
[1] = test system: gram-positive and gram-negative bacteria; conditions: cited from earlier work
[2] = at a concentration of 200 μM or less; cited from earlier work
[3] = test system: Listeria innocua MC2 KCTC 3658, Staphylococcus aureus ATCC 6538, Pseudomonas aeruginosa ATCC 27853, Salmonella ATCC 19430, Escherichia coli KCTC 1682; assay: Minimal inhibitory concentration, standard broth microdilution method; assay type: cell-based; conditions: five strains, 37° C., 12 hours
Description: An antimicrobial assay was performed by measuring a minimal inhibitory concentration (MIC) value using a standard broth microdilution method. The antimicrobial activity of each of the peptides was measured using two gram-positive bacteria (Listeria innocua MC2 KCTC 3658 and Staphylococcus aureus ATCC 6538) and three gram-negative bacteria (Pseudomonas aeruginosa ATCC 27853, Salmonella ATCC 19430, and Escherichia coli KCTC 1682). 50 μl of each of the five bacterial strains were prepared, mixed with 5 ml of 3.7% BHI, and then cultured overnight under conditions of 37° C. and 240 rpm. Thereafter, 50 μl of each of the cultured bacterial strains was mixed with 5 ml of 3.7% BHI, and cultured for 2 hours under conditions of 37° C. and 240 rpm. Each of the cultured bacterial strains was diluted with a 0.037% BHI solution to a concentration of 1×10^8 CFU/ml.
A dissolved synthetic peptide was diluted twofold, stepwise, with BHIB in a 96 well-plate. […] After the incubation, a change in optical density at 600 nm was measured using Microplate Reader Multiskan FC (Thermo Scientific, Waltham, Mass., USA), and a range of the MIC was set as the lowest concentration of a peptide in which the growth of bacteria starts to be inhibited. […]

CHO-K1 cell line = assay: in vitro; assay type: cell-based
Description: (§1) A cytotoxicity experiment was performed by a test method using a Cyto X™ cell viability assay kit (LPS SOLUTION). A 96-well cell culture plate was purchased from Corning, and mammalian cell lines were purchased from the American Type Culture Collection (ATCC). Also, the CytoX™ cell viability assay kit was purchased from LPS SOLUTION.
(§2) As an experimental method, stored frozen cells were thawed, cultured in a DMEM or RP 11640 medium supplemented with 10% FBS, and then sub-cultured at intervals of 2 to 3 days until a density of the cells reached 80 to 90%. For this experiment, the cells were detached by treating the cells with trypsin-EDTA, and then divided into wells of a 96-well plate so that the number of the cells amounted to 10,000 cells. Thereafter, the cells were cultured at 37° C. for 24 hours in a CO2 incubator. Each of the prepared peptides was diluted with DMSO to concentrations of 10, 1, 0.1, 0.01, and 0.001 mM, and then diluted at 1:100 by adding 1 μl of DMSO or each of the prepared peptides to each well. Then, the cells were cultured at 37° C. for 24 hours in a CO2 incubator. To measure cytotoxicity, 10 μl of each of the peptides prepared using the Cyto X™ cell viability assay kit (LPS SOLUTION) was added to each well. The cells were cultured at 37° C. for 1 to 4 hours in a CO2 incubator, and an optical density was measured at 450 nm using a microplate reader. Then, the measured optical density was calculated as a percentage of a value measured for DMSO, and a graph was plotted using GraphPad Prism 5. Then, an IC50 value was calculated. When each of the IC50 values of the four peptides in each cell line was greater than or equal to 10 μM, the peptides were judged to have no general cytotoxicity.

in vitro [4] = assay type: cell-based
Description: as §1, §2

in vitro [5] = assay type: cell-based; conditions: mouse
Description: as §1, §2

Substance	growth inhibition / antimicrobial functionality [1]	hemolytic action [2]	antibacterial activity (MIC experiment, FIG. 2) [3]	cytotoxicity compared with YK3 (CHO-K1 cell line)	IC50 at 24 h (in vitro [4]; African green monkey) [µM]	IC50 at 24 h (in vitro [4]; Chinese hamster) [µM]	IC50 at 24 h (in vitro [4]; human) [µM]	IC50 at 24 h (in vitro [4]; mouse) [µM]	IC50 at 24 h (in vitro [5]) [µM]
NTVKETIKYLKSLFSHAFEVVKT (NTVKETIKYLKSLFSHAFEVVKT; LPcin-1 (23mer)) [LPcin-I, wild-type lactophoricin from cow milk, 23 amino acid residues, carboxyl terminal 113 to 135 region of PP3]	inhibits the growth of both gram-positive and gram-negative bacteria	does not have a hemolytic action							
H-NKVKEWIKYLKSLFK-OH [YK5, NKVKE WIKYL KSLFK]			effective antibacterial activity against the five strains when used at a low concentration	lower cytotoxicity than the YK3 peptide	> 100	57	> 100	> 100	> 100
NKVKEWWKWLKKL [YK11, NKVKE WWKWL KKL]				lower cytotoxicity than the YK3 peptide	83.7	86.8	> 100	> 100	96.6
NKVKEWIKYLKSLFS [YK3, NKVKE WIKYL KSLFS]					99.1	56.2	94		
NKVKEWIKYLKSKFK [YK8, NKVKE WIKYL KSKFK]				lower cytotoxicity than the YK3 peptide	> 100	71.9	> 100	> 100	> 100
